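Cultured in 96-well plates, cells were exposed to test compound for 48 hours across five concentrations. GI50 is the concentration that inhibits growth by half. TGI denotes the concentration required for complete inhibition of growth.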
Assays:
Assay in all cases: inhibition of tumour cell growth, NCI panel, 48 h
PC-3 prostate = system: PC-3 prostate
MALME-3M melanoma = system: MALME-3M melanoma
SNB-19 CNS = system: SNB-19 CNS
NCI-H460 lung = system: NCI-H460 lung
CAKI-1 renal = system: CAKI-1 renal
T-47D breast = system: T-47D breast
NCI-H226 lung = system: NCI-H226 lung
COLO 205 colon = system: COLO 205 colon
SK-OV-3 ovarian = system: SK-OV-3 ovarian
HCT-15 colon = system: HCT-15 colon
MDA-MB-435 = system: MDA-MB-435
MCF7 breast = system: MCF7 breast
UACC-62 melanoma = system: UACC-62 melanoma
UO-31 renal = system: UO-31 renal
HCT-116 colon = system: HCT-116 colon
DU-145 prostate = system: DU-145 prostate
SK-MEL-5 melanoma = system: SK-MEL-5 melanoma
OVCAR-3 ovarian = system: OVCAR-3 ovarian
SF-295 CNS = system: SF-295 CNS
HT29 colon = system: HT29 colon
RXF 393 renal = system: RXF 393 renal
SR leukemia = system: SR leukemia
NCI-H23 lung = system: NCI-H23 lung
HOP-62 NSCLC = system: HOP-62 NSCLC
RPMI-8226 leukemia = system: RPMI-8226 leukemia
SNB-75 CNS = system: SNB-75 CNS
UACC-257 melanoma = system: UACC-257 melanoma
CCRF-CEM leukemia = system: CCRF-CEM leukemia
MDA-MB-231 breast = system: MDA-MB-231 breast
SW-620 colon = system: SW-620 colon
SK-MEL-28 melanoma = system: SK-MEL-28 melanoma
OVCAR-5 ovarian = system: OVCAR-5 ovarian
EKVX NSCLC = system: EKVX NSCLC
BT-549 breast = system: BT-549 breast
TK-10 renal = system: TK-10 renal
M14 melanoma = system: M14 melanoma
NCI/ADR-RES ovarian = system: NCI/ADR-RES ovarian
NCI-H522 lung = system: NCI-H522 lung
SN12C renal = system: SN12C renal
SK-MEL-2 melanoma = system: SK-MEL-2 melanoma
A498 renal = system: A498 renal
ACHN renal = system: ACHN renal
KM12 colon = system: KM12 colon
A549 NSCLC = system: A549 NSCLC
IGROV1 ovarian = system: IGROV1 ovarian
786-0 renal = system: 786-0 renal
K-562 leukemia = system: K-562 leukemia
MOLT-4 leukemia = system: MOLT-4 leukemia
OVCAR-4 ovarian = system: OVCAR-4 ovarian
OVCAR-8 ovarian = system: OVCAR-8 ovarian
U251 CNS = system: U251 CNS
SF-268 CNS = system: SF-268 CNS
HCC-2998 colon = system: HCC-2998 colon
HS 578T breast = system: HS 578T breast
SF-539 CNS = system: SF-539 CNS
HL-60(TB) leukemia = system: HL-60(TB) leukemia
LOX IMVI melanoma = system: LOX IMVI melanoma
HOP-92 NSCLC = system: HOP-92 NSCLC

OCCN(CCO)c1ccc2c(-c3ccccc3)cc(N(CCO)CCO)nc2n1
TGI (PC-3 prostate): > 100 µM
TGI (MALME-3M melanoma): > 100 µM
TGI (SNB-19 CNS): > 100 µM
TGI (NCI-H460 lung): > 100 µM
TGI (CAKI-1 renal): > 100 µM
TGI (T-47D breast): > 100 µM
TGI (NCI-H226 lung): > 100 µM
TGI (COLO 205 colon): > 100 µM
TGI (SK-OV-3 ovarian): > 100 µM
TGI (HCT-15 colon): > 100 µM
TGI (MDA-MB-435): > 100 µM
TGI (MCF7 breast): > 100 µM
TGI (UACC-62 melanoma): > 100 µM
TGI (UO-31 renal): > 100 µM
TGI (HCT-116 colon): > 100 µM
TGI (DU-145 prostate): > 100 µM
TGI (SK-MEL-5 melanoma): > 100 µM
TGI (OVCAR-3 ovarian): > 100 µM
TGI (SF-295 CNS): > 100 µM
TGI (HT29 colon): > 100 µM
TGI (RXF 393 renal): > 100 µM
TGI (SR leukemia): > 100 µM
TGI (NCI-H23 lung): > 100 µM
TGI (HOP-62 NSCLC): > 100 µM
TGI (RPMI-8226 leukemia): > 100 µM
TGI (SNB-75 CNS): > 100 µM
TGI (UACC-257 melanoma): > 100 µM
TGI (CCRF-CEM leukemia): > 100 µM
TGI (MDA-MB-231 breast): > 100 µM
TGI (SW-620 colon): > 100 µM
TGI (SK-MEL-28 melanoma): > 100 µM
TGI (OVCAR-5 ovarian): > 100 µM
TGI (EKVX NSCLC): > 100 µM
TGI (BT-549 breast): > 100 µM
TGI (TK-10 renal): > 100 µM
TGI (M14 melanoma): > 100 µM
TGI (NCI/ADR-RES ovarian): > 100 µM
TGI (NCI-H522 lung): > 100 µM
TGI (SN12C renal): > 100 µM
TGI (SK-MEL-2 melanoma): > 100 µM
TGI (A498 renal): > 100 µM
TGI (ACHN renal): > 100 µM
TGI (KM12 colon): > 100 µM
TGI (A549 NSCLC): > 100 µM
TGI (IGROV1 ovarian): > 100 µM
TGI (786-0 renal): > 100 µM
TGI (K-562 leukemia): > 100 µM
TGI (MOLT-4 leukemia): > 100 µM
TGI (OVCAR-4 ovarian): > 100 µM
TGI (OVCAR-8 ovarian): > 100 µM
TGI (U251 CNS): > 100 µM
TGI (SF-268 CNS): > 100 µM
TGI (HCC-2998 colon): > 100 µM
TGI (HS 578T breast): > 100 µM

CC(=O)N1CCC(Nc2ncc3cc(Oc4ccc(F)cc4F)c(=O)n(C)c3n2)CC1
GI50 (PC-3 prostate): > 25 µM
TGI (PC-3 prostate): > 25 µM
GI50 (SF-539 CNS): > 25 µM
TGI (SF-539 CNS): > 25 µM
GI50 (MALME-3M melanoma): > 25 µM
TGI (MALME-3M melanoma): > 25 µM
GI50 (SNB-19 CNS): > 25 µM
TGI (SNB-19 CNS): > 25 µM
GI50 (NCI-H460 lung): > 25 µM
TGI (NCI-H460 lung): > 25 µM
GI50 (CAKI-1 renal): > 25 µM
TGI (CAKI-1 renal): > 25 µM
GI50 (T-47D breast): > 25 µM
TGI (T-47D breast): > 25 µM
GI50 (NCI-H226 lung): > 25 µM
TGI (NCI-H226 lung): > 25 µM
GI50 (COLO 205 colon): > 25 µM
TGI (COLO 205 colon): > 25 µM
GI50 (SK-OV-3 ovarian): > 25 µM
TGI (SK-OV-3 ovarian): > 25 µM
GI50 (HCT-15 colon): > 25 µM
TGI (HCT-15 colon): > 25 µM
GI50 (MDA-MB-435): > 25 µM
TGI (MDA-MB-435): > 25 µM
GI50 (MCF7 breast): > 25 µM
TGI (MCF7 breast): > 25 µM
GI50 (UACC-62 melanoma): > 25 µM
TGI (UACC-62 melanoma): > 25 µM
GI50 (UO-31 renal): > 17.7 µM
TGI (UO-31 renal): > 25 µM
GI50 (HCT-116 colon): > 25 µM
TGI (HCT-116 colon): > 25 µM
GI50 (DU-145 prostate): > 25 µM
TGI (DU-145 prostate): > 25 µM
GI50 (SK-MEL-5 melanoma): > 25 µM
TGI (SK-MEL-5 melanoma): > 25 µM
GI50 (OVCAR-3 ovarian): > 25 µM
TGI (OVCAR-3 ovarian): > 25 µM
GI50 (SF-295 CNS): > 25 µM
TGI (SF-295 CNS): > 25 µM
GI50 (HT29 colon): > 25 µM
TGI (HT29 colon): > 25 µM
GI50 (RXF 393 renal): > 16.9 µM
TGI (RXF 393 renal): > 25 µM
GI50 (SR leukemia): > 25 µM
TGI (SR leukemia): > 25 µM
GI50 (NCI-H23 lung): > 25 µM
TGI (NCI-H23 lung): > 25 µM
GI50 (HOP-62 NSCLC): > 25 µM
TGI (HOP-62 NSCLC): > 25 µM
GI50 (RPMI-8226 leukemia): > 25 µM
TGI (RPMI-8226 leukemia): > 25 µM
GI50 (SNB-75 CNS): > 22 µM
TGI (SNB-75 CNS): > 25 µM
GI50 (UACC-257 melanoma): > 25 µM
TGI (UACC-257 melanoma): > 25 µM
GI50 (CCRF-CEM leukemia): > 25 µM
TGI (CCRF-CEM leukemia): > 25 µM
GI50 (MDA-MB-231 breast): > 25 µM
TGI (MDA-MB-231 breast): > 25 µM
GI50 (SW-620 colon): > 25 µM
TGI (SW-620 colon): > 25 µM
GI50 (SK-MEL-28 melanoma): > 25 µM
TGI (SK-MEL-28 melanoma): > 25 µM
GI50 (OVCAR-5 ovarian): > 25 µM
TGI (OVCAR-5 ovarian): > 25 µM
GI50 (HL-60(TB) leukemia): > 25 µM
TGI (HL-60(TB) leukemia): > 25 µM
GI50 (BT-549 breast): > 25 µM
TGI (BT-549 breast): > 25 µM
GI50 (TK-10 renal): > 25 µM
TGI (TK-10 renal): > 25 µM
GI50 (M14 melanoma): > 25 µM
TGI (M14 melanoma): > 25 µM
GI50 (NCI/ADR-RES ovarian): > 25 µM
TGI (NCI/ADR-RES ovarian): > 25 µM
GI50 (NCI-H522 lung): > 25 µM
TGI (NCI-H522 lung): > 25 µM
GI50 (SN12C renal): > 25 µM
TGI (SN12C renal): > 25 µM
GI50 (SK-MEL-2 melanoma): > 25 µM
TGI (SK-MEL-2 melanoma): > 25 µM
GI50 (LOX IMVI melanoma): > 25 µM
TGI (LOX IMVI melanoma): > 25 µM
GI50 (A498 renal): 9.26 µM
TGI (A498 renal): > 25 µM
GI50 (ACHN renal): > 25 µM
TGI (ACHN renal): > 25 µM
GI50 (KM12 colon): > 25 µM
TGI (KM12 colon): > 25 µM
GI50 (HOP-92 NSCLC): 2.45 µM
TGI (HOP-92 NSCLC): > 25 µM
GI50 (A549 NSCLC): > 25 µM
TGI (A549 NSCLC): > 25 µM
GI50 (IGROV1 ovarian): > 25 µM
TGI (IGROV1 ovarian): > 25 µM
GI50 (786-0 renal): > 25 µM
TGI (786-0 renal): > 25 µM
GI50 (K-562 leukemia): > 25 µM
TGI (K-562 leukemia): > 25 µM
GI50 (MOLT-4 leukemia): > 25 µM
TGI (MOLT-4 leukemia): > 25 µM
GI50 (OVCAR-4 ovarian): > 18.8 µM
TGI (OVCAR-4 ovarian): > 25 µM
GI50 (OVCAR-8 ovarian): > 25 µM
TGI (OVCAR-8 ovarian): > 25 µM
GI50 (U251 CNS): > 25 µM
TGI (U251 CNS): > 25 µM
GI50 (SF-268 CNS): > 25 µM
TGI (SF-268 CNS): > 25 µM
GI50 (HCC-2998 colon): > 25 µM
TGI (HCC-2998 colon): > 25 µM
GI50 (HS 578T breast): 8.69 µM
TGI (HS 578T breast): > 25 µM

From PubChem BioAssay (NCI)
